Here are results for 6 compounds from ChEMBL document CHEMBL1137815, “New cadinene sesquiterpenoids from the Formosan soft coral Xenia puerto-galerae” (2002).

One assay relates to A549. The experiment in a line: Cytotoxicity against human A549 cells by MTT method. Particulars: read-out: ED50 (the source's name). The assay is classed as functional.
The test system of another assay is P388. The experiment in a line: Cytotoxicity against mouse P388 cells by MTT method. The assay is classed as functional. To be noted: read-out: ED50 (the source's name). (In general: Tetrazolium assays rely on reduction of a dye to a coloured formazan, in cell work by metabolically active cells.)

Converted amounts (≈) assume the structure as drawn.

Consider `C=C(C)[C@@H]1C(=O)C=C(C)[C@@]2(O)CC[C@H](C)C[C@@H]12` [XENITORIN F], for which the EC50 in the assay with A549 and in the assay on P388 was above 50 µg/mL in each case.

As to `C=C(C)[C@@H]1[C@H](O)[C@@H]2O[C@]2(C)[C@@H]2CC[C@H](C)C[C@@H]12` [XENITORIN D], the EC50 in the assay with A549 and in the assay with P388 was above 50 µg/mL throughout. Consider `C=C(C)[C@@H]1C=C[C@](C)(O)[C@@H]2CC[C@H](C)C[C@H]21` [XENITORIN C], for which the EC50 in the assay with A549 and in the assay with P388 was above 50 µg/mL each time. With `C=C(C)[C@@H]1C(=O)C=C(C)[C@@H]2CC[C@H](C)C[C@@H]12` [XENITORIN B], the EC50 in the assay with A549 and in the assay with P388 was above 50 µg/mL in each case. As for `C=C(C)[C@H]1[C@@H]2C[C@@H](C)CC[C@H]2C(C)=C[C@H]1O` [XENITORIN A], the EC50 with A549 is 0.79 µg/mL (≈ 3.59 µM).

`C=C(C)[C@@H]1C(=O)C=C(C)[C@]2(O)CC[C@H](C)C[C@@H]12` [XENITORIN E]: the EC50 with A549 is 1.86 µg/mL (≈ 7.94 µM); in the assay on P388, 3.69 µg/mL (≈ 15.7 µM).
